Source: patent US20240066065A1, “PLATELET DERIVATIVES FOR TREATING COAGULOPATHY” (Cellphire, Inc., priority 2019, published 2024)

Experiments:
[1] = test system: whole blood; assay: T-TAS thrombus formation under flow, AR chip (collagen+TF), rivaroxaban-anticoagulated whole blood; format: cell-based, human
Source text: (§1) In the Total Thrombus-formation Analysis System (T-TAS®, FUJIMORI KOGYO CO., LTD), the sample is forced through collagen-coated microchannels using mineral oil. Changes in pressure are used to assess thrombus formation. The Occlusion Start Time is time it takes to reach 10 kPa, and the Occlusion Time=time it takes to each Δ80 kPa using an AR chip (e.g., Zacros Item No, TC0101). According to the manufacturer, an AR chip can be used for analyzing the formation of a mixed white thrombus consisting chiefly of fibrin and activated platelets. It has a flow path (300 μm wide by 50 μm high) coated with collagen and tissue factors and can be used to analyze the clotting function and platelet function. In comparison, a PL chip can be used for analyzing the formation of a platelet thrombus consisting chiefly of activated platelets. A PL chip has a flow path coated with collagen only and can be used to analyze the platelet function.
Rivaroxaban (sometimes herein called Riv) dose-response in whole blood was measured using T-TAS®. An AR chip (Collagen+TF) was used. T-TAS® assays were performed according to Example 3. The donor platelets were used at 307k/μL.
Thrombosomes were prepared consistent with the procedures described in U.S. Pat. No. 8,486,617 (such as, e.g., Examples 1-5) and U.S. Pat. No. 8,097,403 (such as, e.g., Examples 1-3), and rehydrated by addition of sterile water. T-TAS® assays were run according to Example 3 using 3 μM rivaroxaban and different concentrations of thrombosomes (FIG. 10A, Table 8). The ‘No Riv’ vertical line indicates the approximate occlusion time of a sample with no added rivaroxaban.

[2] = test system: Platelet rich plasma; assay: T-TAS flow system (collagen and tissue factor coated channel), rivaroxaban-treated platelet rich plasma; format: cell-based, human; details: 3 μM rivaroxaban (6.04 without)
Source text: as §1
In a similar experiment, T-TAS® assays were run according to Example 3 with no rivaroxaban, 3 μM rivoroxaban, and 3 μM rivoroxaban and 300×10^3/μL thrombosomes. Platelet rich plasma that was treated with 3 μM rivaroxaban extended occlusion times from 6.04 to 26.01 minutes on the T-TAS® flow system (collagen and tissue factor coated channel).

[3] = test system: heparinized plasma; assay: Thrombin generation assay in heparinized George King Plasma; format: biochemical, human; details: 2 U/mL heparin, 20 μg/mL protamine sulfate, thrombosomes 5K, 50K, 150K per μL
Procedure: Thrombosomes were prepared consistent with the procedures described in U.S. Pat. No. 8,486,617 (such as, e.g., Examples 1-5) and U.S. Pat. No.8,097,403 (such as, e.g., Examples 1-3), and rehydrated by addition of sterile water. aPTT and thrombin generation assays were performed as described in Example 3. […] The dashed line at approximately 70 seconds denotes the limit of abnormal aPTT and the second dashed line is the maximum time measured by the instrument (120 sec). Thrombin generation in heparin treated samples was also measured. […] The dashed line in FIGS. 23B and 23C denotes a typical thrombin peak value seen in this assay for control plasma.
The dashed line at approximately 70 seconds denotes the limit of abnormal aPTT and the second dashed line is the maximum time measured by the instrument (120 sec). Thrombin generation in heparin treated samples was also measured, with and without protamine sulfate. […] The dashed line in FIGS. 24B and 24C enotes a typical thrombin peak value seen in this assay for control plasma.

[4] = test system: dabigatran treated PRP; details: dabigatran 100 ng/mL (18.89 untreated)
Procedure: • (1) Open CAT software; set up instrument; and prepare PRP reagent (including Tissue Factor and some phospholipids), calibrator, and fluoro-buffer according to manufacturer guidelines. • (2) Thaw warfarin or control plasma in 37° C. water bath for 5 minutes. • (3) Rehydrate thrombosomes with cell culture grade water for 10 minutes then dilute with Control Buffer to double target concentration. • (4) For each sample, combine 1:1 volumes of Control Buffer with or without thrombosomes and plasma. • (5) Using a multichannel pipette, add 20 μL of PRP reagent to each well. • (6) Add 80 μL of sample per well.

In the case of `O=C(NC[C@H]1CN(c2ccc(N3CCOCC3=O)cc2)C(=O)O1)c1ccc(Cl)s1` [rivaroxaban], the AUC ([1]; 1 uM rivaroxaban) is reported as 1686 kPa*min, the “Occ Spd” value ([1]; 1 uM rivaroxaban) is reported as 20.9 kPa/min and the AUC ([1]; 3 uM rivaroxaban) is reported as 423 kPa*min. For the same compound, the “Occ Spd” value ([1]; 3 uM rivaroxaban) was 28.2 kPa/min, the AUC ([1]; 9 uM rivaroxaban) was 13.6 kPa*min and the “occlusion and thrombus formation” value ([1]; 9 μM rivaroxaban (a pharmacological dose)) was “inhibits occlusion but not all thrombus formation”. For the same compound, the occlusion time [2] was 26.01 min.
In the case of Protamine Sulfate, the “thrombosome-mediated thrombin generation after heparin reversal” value [3] is reported as “Restores Thrombosome-Mediated Thrombin Generation”.
dabigatran gave a Time to peak [4] of 34.67 min.
